Source: paper PMC7840908 (Communications Biology, 2021)
Several values for one entry are separate records, joined by “and”; a condition that tells them apart may be missing. Equal entries are not always repeated. Entries after “also recorded” stand apart in the source; their conditions may differ.

How the values were obtained:
MERS-CoV macro domain [1] = molecular target: T1, MERS-CoV macro domain (Middle East respiratory syndrome-related coronavirus, UniProt K9N638); type: binding
MERS-CoV macro domain [2] = molecular target: T1, MERS-CoV macro domain; type: binding; remark: listed apart in the source
MERS-CoV macro domain [3] = molecular target: T1, MERS-CoV macro domain; type: binding; remark: listed apart in the source
MERS-CoV macro domain [4] = molecular target: T1, MERS-CoV macro domain; type: binding; remark: listed apart in the source
MERS-CoV macro domain [5] = molecular target: T1, MERS-CoV macro domain; type: biochemical

T1 sequence (K9N638 1110-1276 limits assumed): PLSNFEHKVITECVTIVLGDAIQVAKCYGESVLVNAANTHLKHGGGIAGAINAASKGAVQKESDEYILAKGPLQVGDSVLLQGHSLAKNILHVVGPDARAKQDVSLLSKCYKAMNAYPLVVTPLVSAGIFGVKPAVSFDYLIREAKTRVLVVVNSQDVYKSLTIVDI

Q: Which “n (stoichiometry of binding)” value (MERS-CoV macro domain [1]) does the source give for Nc1ncnc2c1ncn2C1OC(COP(=O)(O)O)C(O)C1O (stereo not shown) [AMP, adenosine monophosphate] here?
A: The value was 1.05 ± 0.38.

Q: What about the ΔH (MERS-CoV macro domain [1]) of the same compound?
A: The ΔH was -2.674 ± 0.722 kcal/mol.

Q: And the “−TΔS” value (MERS-CoV macro domain [1])?
A: Its value is -2.419 ± 0.571 kcal/mol.

Q: And the “NMR CSP, residue 12” value (MERS-CoV macro domain [2])?
A: Its value is 0.007029 and 0.005468.

Q: And the “NMR CSP, residue 22” value (MERS-CoV macro domain [2])?
A: Its value is 0.06732 and 0.05323.

Q: And the “NMR CSP, residue 23” value (MERS-CoV macro domain [2])?
A: Its value is 0.01249 and 0.01858.

Q: And the “NMR CSP, residue 31” value (MERS-CoV macro domain [2])?
A: The value was 0.03059 and 0.02592.

Q: And the “NMR CSP, residue 55” value (MERS-CoV macro domain [2])?
A: The value was 0.07284 and 0.04017.

Q: What about the “NMR CSP, residue 67” value (MERS-CoV macro domain [2]) of the same compound?
A: Its value is 0.009649 and 0.005916.

Q: And the “NMR CSP, residue 70” value (MERS-CoV macro domain [2])?
A: The value was 0.01453 and 0.01754.

Q: What about the “NMR CSP, residue 71” value (MERS-CoV macro domain [2]) of the same compound?
A: Its value is 0.01269 and 0.01423.

Q: And the “NMR CSP, residue 78” value (MERS-CoV macro domain [2])?
A: The value was 0.004301 and 0.003017.

Q: What about the “NMR CSP, residue 81” value (MERS-CoV macro domain [2]) of the same compound?
A: Its value is 0.019 and 0.02485.

Q: What about the “NMR CSP, residue 85” value (MERS-CoV macro domain [2]) of the same compound?
A: Its value is 0.01205 and 0.01581.

Q: And the “NMR CSP, residue 90” value (MERS-CoV macro domain [2])?
A: The value was 0.01829 and 0.02265.

Q: And the “NMR CSP, residue 99” value (MERS-CoV macro domain [2])?
A: Its value is 0.0122 and 0.008579.

Q: What about the “NMR CSP, residue 110” value (MERS-CoV macro domain [2]) of the same compound?
A: The value was 0.01629 and 0.01233.

Q: What about the “NMR CSP, residue 130” value (MERS-CoV macro domain [2]) of the same compound?
A: Its value is 0.0583 and 0.06532.

Q: What about the “NMR CSP, residue 138” value (MERS-CoV macro domain [2]) of the same compound?
A: The value was 0.02281 and 0.03131.

Q: What about the “NMR CSP, residue 153” value (MERS-CoV macro domain [2]) of the same compound?
A: The value was 0.05051.

Q: And the “NMR CSP, residue 156” value (MERS-CoV macro domain [2])?
A: The value was 0.1498.

Q: What about the “NMR CSP, residue 161” value (MERS-CoV macro domain [2]) of the same compound?
A: The value was 0.003728 and 0.003225.

Q: What about the “NMR chemical shift perturbation behaviour / exchange regime” value (MERS-CoV macro domain [2]) of the same compound?
A: Its value is “fast-exchange; also recorded: almost no chemical shift perturbation”.

Q: And the “Melting temperature (Tm) of the MERS-CoV macro domain in complex, CD” value (MERS-CoV macro domain [3])?
A: Its value is 44.0 °C.

Q: What about the “Melting temperature (Tm) of the MERS-CoV macro domain in complex, DSF” value (MERS-CoV macro domain [4]) of the same compound?
A: The value was 42.5 °C.

Q: Which “entropy contribution” value (MERS-CoV macro domain [1]) does the source give for NC(=O)c1ccc[n+]([C@@H]2O[C@H](COP(=O)([O-])OP(=O)(O)OC[C@H]3O[C@@H](n4cnc5c(N)ncnc54)[C@H](O)[C@@H]3O)[C@@H](O)[C@H]2O)c1 [NAD, nicotinamide adenine dinucleotide] here?
A: The value was −22.59 ± 3.77 J/mol K.

Q: And the “n (stoichiometry of binding)” value (MERS-CoV macro domain [1])?
A: Its value is 1.04 ± 0.12 and 0.938 ± 0.13.

Q: What about the “Effect on MAR signals in the deMAR reaction” value (MERS-CoV macro domain [5]) of the same compound?
A: Its value is “the MAR signals reduced more”.

Q: What about the “NMR CSP, residue 25” value (MERS-CoV macro domain [2]) of the same compound?
A: The value was 0.05155 and 0.0863.

Q: What about the “NMR CSP, residue 27” value (MERS-CoV macro domain [2]) of the same compound?
A: Its value is 0.02171 and 0.02658.

Q: And the “NMR CSP, residue 35” value (MERS-CoV macro domain [2])?
A: The value was 0.0131.

Q: And the “NMR CSP, residue 36” value (MERS-CoV macro domain [2])?
A: Its value is 0.01783.

Q: And the “NMR CSP, residue 37” value (MERS-CoV macro domain [2])?
A: The value was 0.07975.

Q: And the “NMR CSP, residue 38” value (MERS-CoV macro domain [2])?
A: Its value is 0.01444.

Q: And the “NMR CSP, residue 45” value (MERS-CoV macro domain [2])?
A: The value was 0.2497.

Q: What about the “NMR CSP, residue 47” value (MERS-CoV macro domain [2]) of the same compound?
A: Its value is 0.006205.

Q: What about the “NMR CSP, residue 48” value (MERS-CoV macro domain [2]) of the same compound?
A: Its value is 0.04145.

Q: What about the “NMR CSP, residue 49” value (MERS-CoV macro domain [2]) of the same compound?
A: The value was 0.01049.

Q: What about the “NMR CSP, residue 79” value (MERS-CoV macro domain [2]) of the same compound?
A: The value was 0.07732 and 0.1287.

Q: What about the “NMR CSP, residue 104” value (MERS-CoV macro domain [2]) of the same compound?
A: The value was 0.01357 and 0.02257.

Q: And the “NMR CSP, residue 115” value (MERS-CoV macro domain [2])?
A: The value was 0.005468 and 0.008456.

Q: And the “NMR CSP, residue 124” value (MERS-CoV macro domain [2])?
A: Its value is 0.0754 and 0.108.

Q: What about the “NMR CSP, residue 128” value (MERS-CoV macro domain [2]) of the same compound?
A: Its value is 0.1673.

Q: And the “NMR CSP, residue 129” value (MERS-CoV macro domain [2])?
A: The value was 0.02609.

Q: And the “NMR CSP, residue 130” value (MERS-CoV macro domain [2])?
A: Its value is 0.008538.

Q: And the “NMR CSP, residue 132” value (MERS-CoV macro domain [2])?
A: The value was 0.01478.

Q: And the “NMR CSP, residue 140” value (MERS-CoV macro domain [2])?
A: The value was 0.01724 and 0.02911.

Q: And the “NMR CSP, residue 143” value (MERS-CoV macro domain [2])?
A: The value was 0.0201 and 0.02422.

Q: And the “NMR CSP, residue 156” value (MERS-CoV macro domain [2])?
A: Its value is 0.0383.

Q: And the “NMR chemical shift perturbation behaviour / exchange regime” value (MERS-CoV macro domain [2])?
A: The value was “only a few residues presented CSPs; also recorded: slow-exchange”.

Q: What about the “Melting temperature (Tm) of the MERS-CoV macro domain in complex, CD” value (MERS-CoV macro domain [3]) of the same compound?
A: Its value is 46.6 °C.

Q: What about the “Melting temperature (Tm) of the MERS-CoV macro domain in complex, DSF” value (MERS-CoV macro domain [4]) of the same compound?
A: The value was 46.5 °C.
